Assay results taken from paper PMC9965520, “An Efficient Peptidomics Screening for Exogenous Substrates and Inhibitory Peptides of the Dipeptidase ACE from Milk Hydrolysate” (Pharmaceutics, 2023).
No end group written: not given here.

Key:
[1] = target: T1, ACE (Oryctolagus cuniculus, UniProt P12822); experiment: ACE pre-incubation of milk hydrolysate peptide libraries, stable-isotope dimethyl labeling and LC-MS/MS (D/H ratio); type: in vitro ADME, rabbit; parameters: ACE (EC 3.4.15.1, 1 unit) from rabbit lungs; purchased Sigma Chemical Co. (St. Louis, MO, USA); host or cells: rabbit lungs (tissue-derived enzyme); conditions: milk hydrolysate peptide library (<3 kDa); ACE-treated (0.05 mU/μL ACE, borate buffer, 37 °C, 3 h: 1.5 h static + 1.5 h 200 rpm; D-labeled) versus untreated (H-labeled) peptide; intensity ratio in LC-MS; <1 = hydrolysed by ACE
T1 sequence (P12822 34-1310): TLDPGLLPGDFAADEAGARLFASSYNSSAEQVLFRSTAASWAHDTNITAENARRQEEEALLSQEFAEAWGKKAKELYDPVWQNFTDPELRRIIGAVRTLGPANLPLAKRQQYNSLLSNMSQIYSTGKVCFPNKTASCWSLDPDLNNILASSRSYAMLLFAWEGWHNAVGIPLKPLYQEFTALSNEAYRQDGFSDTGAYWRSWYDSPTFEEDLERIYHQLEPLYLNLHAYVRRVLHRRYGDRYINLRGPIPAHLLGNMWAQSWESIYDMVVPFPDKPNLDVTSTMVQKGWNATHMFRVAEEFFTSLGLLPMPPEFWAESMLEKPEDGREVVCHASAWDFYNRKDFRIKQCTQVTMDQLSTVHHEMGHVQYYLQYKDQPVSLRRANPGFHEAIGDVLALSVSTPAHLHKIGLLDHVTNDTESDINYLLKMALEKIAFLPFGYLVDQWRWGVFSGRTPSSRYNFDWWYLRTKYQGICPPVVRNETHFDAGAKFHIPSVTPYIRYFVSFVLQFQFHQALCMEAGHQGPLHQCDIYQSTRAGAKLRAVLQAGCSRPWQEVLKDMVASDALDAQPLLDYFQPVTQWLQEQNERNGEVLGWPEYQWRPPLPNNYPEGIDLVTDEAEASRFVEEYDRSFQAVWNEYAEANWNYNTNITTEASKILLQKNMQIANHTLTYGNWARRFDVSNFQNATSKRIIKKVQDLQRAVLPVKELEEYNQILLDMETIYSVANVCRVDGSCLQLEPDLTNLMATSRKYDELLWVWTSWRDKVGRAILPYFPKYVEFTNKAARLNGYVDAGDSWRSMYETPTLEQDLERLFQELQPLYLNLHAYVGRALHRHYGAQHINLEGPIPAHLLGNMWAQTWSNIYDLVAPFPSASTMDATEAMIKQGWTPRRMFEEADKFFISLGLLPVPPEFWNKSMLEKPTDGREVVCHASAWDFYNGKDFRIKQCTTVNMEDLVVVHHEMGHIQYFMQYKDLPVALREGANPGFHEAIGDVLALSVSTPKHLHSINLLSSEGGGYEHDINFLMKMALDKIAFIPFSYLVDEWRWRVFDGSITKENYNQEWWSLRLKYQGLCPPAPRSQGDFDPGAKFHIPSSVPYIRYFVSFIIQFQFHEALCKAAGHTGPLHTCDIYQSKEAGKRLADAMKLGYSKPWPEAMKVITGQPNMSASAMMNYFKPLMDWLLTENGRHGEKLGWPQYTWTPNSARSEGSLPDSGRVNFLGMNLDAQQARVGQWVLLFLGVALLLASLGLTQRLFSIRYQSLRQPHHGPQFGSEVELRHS
Protocol: The peptide libraries (200 μg) dissolved in borate buffer were equally divided into two parts, one was without any treatment (control group); the other part (experimental group) was incubated with 0.05 mU/μL ACE at 37℃ for 1.5 h statically, followed by gentle shaking at 200 rpm for another 1.5 h, and then the ACE reaction was quenched using 60 μL of 1N HCl. After lyophilization, both samples were redissolved in 100 μL of 0.1M sodium acetate and modified using stable-isotope dimethyl labeling according to the previous study with slight modifications. Briefly, the control group (without ACE incubation) had 4 μL of formaldehyde (37% solution in H2O) and 1 M NaBH3CN (10 μL) added to it; the experimental group had 20% formaldehyde-d2 (8 μL) and 1M NaBH3CN (10 μL) added to it. After 1h, 5 μL of ammonia (28% solution in H2O) were added individually to both groups to stop the reaction. The experimental group and the control group were combined and desalted using the PepClean™C18 spin column. The resulting peptide mixture was lyophilized and kept at −20 °C prior to LC-MS/MS analysis. Formaldehyde is known to the state of California to cause cancer; special caution was taken including the use of surgical gloves and a fume hood when formaldehyde was handled.
The combined mixture re-dissolved in 5% ACN containing 0.1% formic acid was separated using an Ultimate 3000 RSLC system (Dionex, Sunnyvale, CA, USA) coupled with a C18 column (Acclaim PepMap RSLC, 75 μm × 150 mm, Thermo Scientific, Waltham, Middlesex, MA, USA) and analyzed with a Thermo Q-ExactiveTM mass spectrometer (Thermo Scientific Inc., Waltham, Middlesex, MA, USA). The elution solution was composed of mobile phase A (0.1% formic acid in water) and B (0.1% formic acid in 95% acetonitrile). The elution gradient was arranged as follows: (i) isocratic elution using 1% B in the first 5.5 min for sample loading, (ii) linear gradient from 1% to 60% B in the next 39.5 min, (iii) linear gradient from 60% to 80% B in the following 10 min, and finally (iv) isocratic elution using 1% solution B for 10 min. The flow rate applied in the LC separation was maintained at 250 µL/min. The separated peptides were analyzed and quantified using Q-ExactiveTM mass spectrometry which was operated in the data-dependent mode and switched automatically between MS and HCD-MS2. A full MS scan was carried out in a 100 and 1500 m/z range, and the 14 ions of the highest intensities were selected for MS/MS scans. The RAW data were converted to the MGF file format followed by database-assisted sequencing with PEAKS DB using PEAKS Studio X (Bioinformatics Solutions Inc., Waterloo, ON, Canada). The parameters used for peptide identification were listed as follows: (1) Database: UniProt_SwissProt (Bos taurus); (2) Enzyme: pepsin, trypsin, α-chymotrypsin, or GI (the combination of these three proteases); (3) Type of enzyme: Unspecific; (4) Instrument: Orbitrap; (5) Parent mass error tolerance: 20 ppm; (6) Fragment mass error tolerance: 0.6 Da; (7) Variable modifications: Dimethyl (K), Dimethyl (N-term), Dimethyl:2H(4) (K), and Dimethyl:2H(4) (N-term) were used for identification and quantitative analysis. The sequence identified through the database was validated by manually matching with the MS/MS spectrum in the raw data. In addition to MS/MS analysis coupled with PEAKS studio, the ACE’s substrate candidates were further confirmed using the synthetic peptides with corresponding sequences by comparison with their LC retention times, m/z values, and MS/MS spectra. The relative abundances of hydrogen (H) and deuterium (D) labeled peptides were quantified based on the peak areas in their corresponding selective ion chromatograms (SIC). The D/H ratio of identified peptide with the same sequence was further examined by their relative signal intensities in MS spectrum. Theoretically, the D/H ratio of the isobaric pair should stay at 1 if the peptide will not react with ACE. […]

[2] = system: ACE; conditions: 3 h of incubation with ACE; ref 21 (Forghani et al.); cited from earlier work
Protocol: To investigate the sequence conservation of the exogenous substrates, the identified substrates listed on Table 1 were analyzed using Weblogo (https://weblogo.berkeley.edu/). WebLogo is the software designed to analyze the frequency of residues that appeared at various positions in a sequence library. The font size of each letter (residue) represents the frequency appearance of each residue at a certain position. The order from the most frequent to the least frequent is arranged from the top to the bottom for each residue. The chemical properties of amino acid residues are classified by ...

[3] = target: T1, ACE; conditions: pH 8.3
Protocol: To a mixture of Ang-I (1 μg) and peptide substrate (1 μg) in 50 µL of borate buffe (200 mM borate buffer, 300 mM NaCl, pH 8.3), 20 µL of ACE (0.05 mU/µL) was added. The mixture was incubated at 37 °C and monitored using LC-MS/MS at 1, 2, 3, 4, 6, and 10 h. The LC separation was performed on Syncronis C18 column (150 mm × 2.1 mm, 5 µm, Thermo Scientific) and eluted with the mobile phase A (5% ACN and 0.1% FA) and B (95% ACN and 0.1% FA) at a flow rate of 350 µL/min. The elution gradient was programmed as (i) 0–5 min, isocratic elution with 5% B; (ii) 5–20 min, linear gradient from 5% to 55% B; (iii) 20–22 min, linear gradient from 55% to 80% solution B; and finally (iv) 22–30 min, isocratic elution maintained at 80% solution B. The degradation of Ang-I and the formation of Ang-II were analyzed using selective ion chromatogram (SIC) on a triple quadrupole mass analyzer (TSQ, Thermo Scientific). The percentage of the remaining angiotensin I (RA%) at each time point was calculated as AI/(AI + AII) × 100%, where AI is the SIC peak area of remaining Ang-I and AII is the peak area of the resulting Ang-II.

[4] = target: T1, ACE; experiment: ACE hydrolysis of synthetic substrate candidates monitored by LC-MS at different incubation times; type: in vitro ADME, rabbit; parameters: ACE (EC 3.4.15.1, 1 unit) from rabbit lungs; purchased Sigma Chemical Co. (St. Louis, MO, USA); host or cells: rabbit lungs (tissue-derived enzyme); conditions: synthetic peptide incubated with ACE, 37 °C, 3 h, LC-MS/MS
Protocol: To confirm the reactivity of the identified peptide candidates towards ACE, the synthetic peptides were individually mixed with ACE and incubated at 37 °C for 3 h. The remaining peptide substrate and the resulting product were analyzed using LC-MS/MS. Meanwhile, the degradation rate of each peptide was monitored every 30 min using LC-MS. The percentage of the remaining substrate (RS%) at each time point was calculated as As/(As + Ap) 100%. In which, As is the selective ion chromatogram (SIC) peak area of remaining substrate and Ap is the peak area of the resulting product. The RS% was further compared with the D/H ratio obtained in Section 2.4.

Substance	D/H Ratio [1]	also measured
ALNEINQFY [ALNEINQFY]	0.84	
ALPMHIR [ALPMHIR]	0.15	
AVPYPQR [AVPYPQR]	0.44	
CRQNTLGHNTQTSIAQ		peptide loss on incubation with ACE [2]: 7%
DMPIQAF [DMPIQAF]	0.55	
DMPIQAFL [DMPIQAFL]	0.59	
DRVYIHPFHL [Ang-I, angiotensin I, reference compound]		Hydrolysis of Ang-I by ACE without exogenous substrates [3]: hydrolyzed almost completely
FALPQYLK [FALPQYLK]	0.94	
FPQYLQY [FPQYLQY]	0.12	
HPHPHLSF [HPHPHLSF]	0.15	
HQGLPQEVLNENLLR [HQGLPQEVLNENLLR]	0.76	
HQPHQPLPPTVM [HQPHQPLPPTVM]	0.40	
IASGEPTSTPTTE [IE-13]		Hydrolysis of synthetic peptide by ACE (result in words) [4]: avoid ACE’s hydrolysis
LVYPFPGPIHN [LVYPFPGPIHN]		Hydrolysis of synthetic peptide by ACE (result in words) [4]: retard the second cleavage
LVYPFPGPLHNSL [LVYPFPGPLHNSL]		Hydrolysis of synthetic peptide by ACE (result in words) [4]: readily hydrolyzed by ACE
LYQGPIVL [LYQGPIVL]		Hydrolysis of synthetic peptide by ACE (result in words) [4]: survive from ACE’s hydrolysis
NIPPLTQTPV [NV-10]		Hydrolysis of synthetic peptide by ACE (result in words) [4]: avoid ACE’s hydrolysis
VRSPAQILQ [VRSPAQILQ]		Hydrolysis of synthetic peptide by ACE (result in words) [4]: survive from ACE’s hydrolysis

Continued, in another order:

D/H Ratio [1]	Substance	also measured
0.33	INNQFLPYPYY [INNQFLPYPYY]	
0.47	IPPLTQT [IPPLTQT]	
0.66	KVIPYVRY [KVIPYVRY]	
0.65	LRPVAAEIY [LRPVAAEIY]	
0.21	MFPPQSVL [MFPPQSVL]	
0.61	NAVPITPTLNR [NAVPITPTLNR]	
0.47	QLDAYPSGAW [QLDAYPSGAW]	
0.56	QVSLNSGY [QVSLNSGY]	
0.65	SAYPGQITSN [SAYPGQITSN]	
0.18	SIVHPSY [SIVHPSY]	
0.81	SRYPSYGLN [SRYPSYGLN]	
0.15	TTMPLW [TTMPLW]	
0.83	VAPFPEVFG [VAPFPEVFG]	
0.80	VVPPFLQPEVM [VVPPFLQPEVM]	
0.76	YPVEPFTESQSL [YPVEPFTESQSL]	
